Measurements reported in patent US8835134B2, “Cycloastragenol monoglucoside, preparation, pharmaceutical composition and application thereof” (Tianjin Institute of Pharmaceutical Research, priority 2007, dated 2014).

System: anesthetized open-chest dogs
Assay: Hemodynamics of anesthetized open-chest dogs, intravenous infusion
Type: in vivo, mongrel dogs
Description: The animals were anesthetized by intravenous injection of 30 mg/kg sodium pentobarbital, tracheally intubated, and mechanically ventilated with positive air pressure. Left thoracotomy was performed through the fourth intercostal space and the heart was suspended in a pericardial cradle, the aortic root was isolated and a probe of blood flow meter (12 or 14 mm in diameter) was fixed to measure the aortic blood flow as a representation of cardiac output (CO), the circumflex branch of left coronary artery was isolated and a probe of blood flow meter (2 or 2.5 mm in diameter) was fixed to measure the coronary blood flow (CBF). A polyethylene catheter filled with heparin physiological saline was inserted through cardiac apex into the left ventricle to measure the left ventricular pressure (LVP) and left ventricular end-diastolic pressure (LVEDP), Peak positive and peak negative first derivatives of the LVP (+ LVdp/dt and − LVdp/dt) were calculated with the Acknowledge software. The systolic blood pressure (SBP), diastolic blood pressure (DBP) and mean arterial pressure (MAP) were measured by polyethylene catheter via the femoral artery, ECG □ was measured by a AC-601G ECG amplifier. The above-mentioned analog signal was input into a data acquisition workstation (MP100, BIOPAC Systems, USA) to a computer running Acknowledge (version 3.7.1).
After surgery, various indexes before administration were recorded until the indexes were stable, and then intravenous infusion administration was conducted. Thirty dogs were divided into five groups (six dogs in each group), the experiment groups were given 0.15, 0.3, 0.6 mg/kg of ASP-[…] respectively, the normal control group was given 1 ml/kg of solvent, and the positive control group was given 0.3 mg/kg of astragaloside IV. The delivery volumes were 15 ml for each dog was and the delivery velocity was 1 ml/min. The indexes were recorded at 5, 10, 15, 20, 30, 45, 60, 90 and 120 mins after drug administration. At the end of experiment, the hearts were excised and weighted. The myocardial blood flow for per hectogram (CF), coronary resistance (CR), cardiac index (CI), left ventricular work (LVW) and total peripheral resistance (TPR) were calculated according to the following formulae: CF=CBF×[…]/heart weight CR=MAP/CF CI=CO/0.11×(body weight)^2/3 LVW=CO×(MAP−5)×1.052×0.0136 TPR=MAP×79.92/CO
Data are expressed as mean±SD ( x±s), the paired t-test was used to compare the significance between before and after administration, the unpaired t-test was adopted for comparison between groups.

[1] = 0.3 mg/kg iv, 45 min after administration
[2] = 0.3 mg/kg iv, 60 min after administration
[3] = 0.3 mg/kg iv, 90 min after administration
[4] = 0.3 mg/kg iv, 120 min after administration
[5] = 0.3 mg/kg iv, before administration
[6] = 0.6 mg/kg iv, 5 min after administration
[7] = 0.6 mg/kg iv, 10 min after administration
[8] = 0.6 mg/kg iv, 15 min after administration

SMILES: CC(C)(O)[C@@H]1CC[C@](C)([C@H]2[C@@H](O)C[C@@]3(C)C4C[C@H](OC5OC(CO)C(O)C(O)C5O)C5C(C)(C)[C@@H](O)CC[C@@]56C[C@@]46CC[C@]23C)O1 (stereo partly drawn) [CMG, Cycloastragenol-6-O-β-D-glucoside]
- −dp/dt change vs before administration (0.3 mg/kg iv, 30 min after administration): (36 ± 97) mmHg/s
- CF [1]: 51.7 ± 23.5 ml/min/100 g
- CF change vs before administration [1]: (1.6 ± 6.8) ml/min/100 g
- CI [1]: 1.85 ± 0.84 L/min/m^2
- CI change vs before administration [1]: (−0.13 ± 0.13) L/min/m^2
- CO [1]: 1.03 ± 0.39 L/min
- CO change vs before administration [1]: (−0.07 ± 0.07) L/min
- CR [1]: 1.65 ± 0.92 mmHg/ml/min/100 g
- CR change vs before administration [1]: (0.11 ± 0.29) mmHg/ml/min/100 g
- LVEDP [1]: 0.5 ± 2.3 mmHg
- LVEDP change vs before administration [1]: (−1.28 ± 0.75) mmHg
- LVP [1]: 98 ± 22 mmHg
- LVP change vs before administration [1]: (−4.8 ± 5.5) mmHg
- LVW [1]: 1.00 ± 0.48 kg · m
- LVW change vs before administration [1]: (−0.02 ± 0.11) kg · m
- TPR [1]: 6068 ± 2331 dyn · s/cm^5
- TPR change vs before administration [1]: (768 ± 937) dyn · s/cm^5
- dp/dt [1]: 1285 ± 453 mmHg/s
- dp/dt change vs before administration [1]: (24 ± 83) mmHg/s
- −dp/dt [1]: −878 ± 266 mmHg/s
- −dp/dt change vs before administration [1]: (43 ± 117) mmHg/s
- CF [2]: 51.7 ± 23.9 ml/min/100 g
- CF change vs before administration [2]: (1.6 ± 6.8) ml/min/100 g
- CI [2]: 1.80 ± 0.93 L/min/m^2
- CI change vs before administration [2]: (−0.19 ± 0.42) L/min/m^2
- CO [2]: 1.00 ± 0.45 L/min
- CO change vs before administration [2]: (−0.10 ± 0.25) L/min
- CR [2]: 1.54 ± 0.75 mmHg/ml/min/100 g
- CR change vs before administration [2]: (0.01 ± 0.19) mmHg/ml/min/100 g
- LVEDP [2]: 0.8 ± 2.8 mmHg
- LVEDP change vs before administration [2]: (−0.98 ± 0.88) mmHg
- LVP [2]: 98 ± 22 mmHg
- LVP change vs before administration [2]: (−5.7 ± 6.0) mmHg
- LVW [2]: 0.90 ± 0.43 kg · m
- LVW change vs before administration [2]: (−0.12 ± 0.26) kg · m
- TPR [2]: 6625 ± 4423 dyn · s/cm^5
- TPR change vs before administration [2]: (1326 ± 3485) dyn · s/cm^5
- dp/dt [2]: 1272 ± 479 mmHg/s
- dp/dt change vs before administration [2]: (11 ± 94) mmHg/s
- −dp/dt [2]: −833 ± 236 mmHg/s
- −dp/dt change vs before administration [2]: (88 ± 199) mmHg/s
- CF [3]: 51.1 ± 19.1 ml/min/100 g
- CF change vs before administration [3]: (1.0 ± 4.7) ml/min/100 g
- CI [3]: 1.74 ± 0.98 L/min/m^2
- CI change vs before administration [3]: (−0.25 ± 0.42) L/min/m^2
- CO [3]: 0.96 ± 0.47 L/min
- CO change vs before administration [3]: (−0.14 ± 0.24) L/min
- CR [3]: 1.51 ± 0.66 mmHg/ml/min/100 g
- CR change vs before administration [3]: (−0.02 ± 0.16) mmHg/ml/min/100 g
- LVEDP [3]: 0.9 ± 2.6 mmHg
- LVEDP change vs before administration [3]: (−0.83 ± 0.72) mmHg
- LVP [3]: 99 ± 20 mmHg
- LVP change vs before administration [3]: (−4.5 ± 7.0) mmHg
- LVW [3]: 0.90 ± 0.53 kg · m
- LVW change vs before administration [3]: (−0.12 ± 0.32) kg · m
- TPR [3]: 7000 ± 4452 dyn · s/cm^5
- TPR change vs before administration [3]: (1701 ± 3472 dyn · s/cm^5
- dp/dt [3]: 1242 ± 437 mmHg/s
- dp/dt change vs before administration [3]: (−19 ± 39) mmHg/s
- −dp/dt [3]: −909 ± 312 mmHg/s
- −dp/dt change vs before administration [3]: (12 ± 172) mmHg/s
- CF [4]: 50.7 ± 20.1 ml/min/100 g
- CF change vs before administration [4]: (0.5 ± 2.0) ml/min/100 g
- CI [4]: 1.81 ± 1.07 L/min/m^2
- CI change vs before administration [4]: (−0.17 ± 0.52) L/min/m^2
- CO [4]: 1.00 ± 0.52 L/min
- CO change vs before administration [4]: (−0.10 ± 0.30) L/min
- CR [4]: 1.60 ± 0.82 mmHg/ml/min/100 g
- CR change vs before administration [4]: (0.07 ± 0.21) mmHg/ml/min/100 g
- LVEDP [4]: 1.0 ± 2.1 mmHg
- LVEDP change vs before administration [4]: (−0.71 ± 0.45) mmHg
- LVP [4]: 100 ± 23 mmHg
- LVP change vs before administration [4]: (−3.5 ± 10.3) mmHg
- LVW [4]: 0.94 ± 0.54 kg · m
- LVW change vs before administration [4]: (−0.08 ± 0.37) kg · m
- TPR [4]: 7219 ± 5040 dyn · s/cm^5
- TPR change vs before administration [4]: (1920 ± 3990) dyn · s/cm^5
- dp/dt [4]: 1309 ± 433 mmHg/s
- dp/dt change vs before administration [4]: (48 ± 92) mmHg/s
- −dp/dt [4]: −894 ± 278 mmHg/s
- −dp/dt change vs before administration [4]: (27 ± 63) mmHg/s
- +LVdp/dtmax maximum increase (0.3 mg/kg iv, at 5-10 min after administration): 12.0±5.0%
- CF [5]: 50.2 ± 19.5 ml/min/100 g
- CI [5]: 1.98 ± 0.84 L/min/m^2
- CO [5]: 1.10 ± 0.38 L/min
- CR [5]: 1.53 ± 0.67 mmHg/ml/min/100 g
- LVEDP [5]: 1.7 ± 2.2 mmHg
- LVP [5]: 103 ± 20 mmHg
- LVW [5]: 1.02 ± 0.47 kg · m
- TPR [5]: 5299 ± 1597 dyn · s/cm^5
- dp/dt [5]: 1261 ± 453 mmHg/s
- −dp/dt [5]: −921 ± 311 mmHg/s
- LVEDP maximum decrease (0.6 mg/kg iv): 2.1±0.5 mmHg
- CF [6]: 51.7 ± 10.5 ml/min/100 g
- CF change vs before administration [6]: (0.5 ± 3.1) ml/min/100 g
- CI [6]: 2.00 ± 0.56 L/min/m^2
- CI change vs before administration [6]: (0.04 ± 0.16) L/min/m^2
- CO [6]: 1.18 ± 0.42 L/min
- CO change vs before administration [6]: (0.03 ± 0.09) L/min
- CR [6]: 1.44 ± 0.39 mmHg/ml/min/100 g
- CR change vs before administration [6]: (0.02 ± 0.08) mmHg/ml/min/100 g
- LVEDP [6]: 1.5 ± 1.6 mmHg
- LVEDP change vs before administration [6]: (−1.17 ± 0.78) mmHg
- LVP [6]: 105 ± 14 mmHg
- LVP change vs before administration [6]: (−1.1 ± 3.5) mmHg
- LVW [6]: 1.11 ± 0.38 kg · m
- LVW change vs before administration [6]: (0.03 ± 0.11) kg · m
- TPR [6]: 5474 ± 2219 dyn · s/cm^5
- TPR change vs before administration [6]: (−32 ± 572) dyn · s/cm^5
- dp/dt [6]: 1186 ± 316 mmHg/s
- dp/dt change vs before administration [6]: (83 ± 55) mmHg/s
- −dp/dt [6]: −850 ± 223 mmHg/s
- −dp/dt change vs before administration [6]: (2 ± 31) mmHg/s
- CF [7]: 51.2 ± 8.4 ml/min/100 g
- CF change vs before administration [7]: (0.0 ± 2.2) ml/min/100 g
- CI [7]: 2.01 ± 0.39 L/min/m^2
- CI change vs before administration [7]: (0.05 ± 0.20) L/min/m^2
- CO [7]: 1.17 ± 0.33 L/min
- CO change vs before administration [7]: (0.02 ± 0.11) L/min
- CR [7]: 1.44 ± 0.40 mmHg/ml/min/100 g
- CR change vs before administration [7]: (0.03 ± 0.12) mmHg/ml/min/100 g
- LVEDP [7]: 0.9 ± 1.6 mmHg
- LVEDP change vs before administration [7]: (−1.74 ± 0.68) mmHg
- LVP [7]: 105 ± 17 mmHg
- LVP change vs before administration [7]: (−1.3 ± 5.0) mmHg
- LVW [7]: 1.11 ± 0.34 kg · m
- LVW change vs before administration [7]: (0.03 ± 0.15) kg · m
- TPR [7]: 5261 ± 1874 dyn · s/cm^5
- TPR change vs before administration [7]: (−246 ± 497) dyn · s/cm^5
- dp/dt [7]: 1198 ± 278 mmHg/s
- dp/dt change vs before administration [7]: (95 ± 70) mmHg/s
- −dp/dt [7]: −857 ± 238 mmHg/s
- −dp/dt change vs before administration [7]: (−4 ± 46) mmHg/s
- CF [8]: 51.4 ± 8.3 ml/min/100 g
- CF change vs before administration [8]: (0.2 ± 3.7) ml/min/100 g
- CI [8]: 2.05 ± 0.50 L/min/m^2
- CI change vs before administration [8]: (0.09 ± 0.16) L/min/m^2
- CO [8]: 1.20 ± 0.38 L/min
- CO change vs before administration [8]: (0.05 ± 0.09) L/min
- CR [8]: 1.43 ± 0.35 mmHg/ml/min/100 g
- CR change vs before administration [8]: (0.01 ± 0.07) mmHg/ml/min/100 g
- LVEDP [8]: 1.3 ± 1.6 mmHg
- LVEDP change vs before administration [8]: (−1.38 ± 0.51) mmHg
- LVP [8]: 105 ± 17 mmHg
- LVP change vs before administration [8]: (−0.8 ± 4.1) mmHg
- LVW [8]: 1.14 ± 0.41 kg · m
